Assay: Rat feeding trial (Ratten-Fütterungsversuch), Beispiel A
Type: in vivo
Conditions: Dosis 100 ppm in feed ad lib; female SPF Wistar rats, 90-110 g; 13-day trial; control without active substance = 100
Excerpt: Weibliche Laborratten 90-110 g schwer vom Typ SPF Wistar (Züchtung Hagemann) werden ad lib mit Standard Rattenfutter, das mit der gewünschten Menge Wirkstoff versetzt ist, gefüttert. Jeder Versuchsansatz wird mit Futter der identischen Charge durchgeführt, so daß Unterschiede in der Zusammensetzung des Futters die Vergleichbarkeit der Ergebnisse nicht beeinträchtigen können.
Die Ratten erhalten Wasser ad lib.
Jeweils 12 Ratten bilden eine Versuchsgruppe und werden mit Futter, das mit der gewünschten Menge Wirkstoff versetzt ist gefüttert. Eine Kontrollgruppe erhält Futter ohne Wirkstoff. Das durchschnittliche Körpergewicht sowie die Streuung in den Körpergewichten der Ratten ist in jeder Versuchsgruppe gleich, so daß eine Vergleichbarkeit der Versuchsgruppen untereinander gewährleistet ist.
Während des 13-tägigen Versuchs werden Gewichtszunahme und Futterverbrauch bestimmt.

Question: With `CC(C)(C)NCC(O)c1cc(Cl)nc(Cl)c1` (stereo not shown) [compound 1] as the compound, how does the Gewichtszunahme read?
Answer: The Gewichtszunahme was 110.

Question: For `CC(C)(C)NCC(O)c1cnc(N)c(Cl)c1` (stereo not shown) [compound 3], which Gewichtszunahme is on record?
Answer: The Gewichtszunahme was 115.

Question: Which Gewichtszunahme does the source give for `CC(C)(C)NCC(O)c1ccc(N)c(Cl)n1` (stereo not shown) [compound 6] here?
Answer: The Gewichtszunahme was 110.

Question: For `CC(C)NCC(O)c1ccc(N)cn1` (stereo not shown) [compound 7], which Gewichtszunahme is on record?
Answer: Its Gewichtszunahme is 120.
